Results from US20190210973A1, “COMPOUNDS AND METHODS FOR TREATMENT OF CYSTIC FIBROSIS” (The Curators of the University of Missouri, priority 2018, published 2019).

Molecular target: delF508-CFTR (Homo sapiens, UniProt P13569, DEL508-508)
Experiment: Patch-clamp recording of delF508-CFTR currents in excised inside-out patches of transfected CHO cells
Format: cell-based
Text: Patch-clamp is considered the gold standard for assessing directly ion channel function in real time. By attaching a glass microelectrode on the surface of a cell, it is possible to record the currents generated by channels proteins that are present in this tiny “patch” of cell membranes. Since millions of ions pass through a single ion channel pore per second, the resulting microscopic currents from a single channel protein molecule can be detected with modem patch-clamp amplifiers. As ion channels (a conductor in electricity term) are arranged in parallel in the cell membrane, it is also possible to assay a group of ion channels by monitoring macroscopic currents representing the sum of currents from individual channels. Microscopic recordings allow artisans to examine exquisitely the effects of compounds on the Po and kinetic parameters of CFTR channels; whereas macroscopic recordings provide an assay not only to quantify the overall effects of compounds on N×Po×i, but also monitor the stability of the CFTR currents in real time.
Chinese hamster ovary (CHO) cells were grown at 37° C. in Dulbecco's modified Eagle's medium supplemented with 10% fetal bovine serum. Cells were subcultured into 35-mm tissue culture dishes 1 day before transfection. PolyFect transfection reagent (QIAGEN) was used to cotransfect CFTR cDNA and pEGFP-C3 (Takara Bio Inc.), which encodes green fluorescence proteins, into CHO cells. After transfection, cells were incubated at 27° C. for at least 2 days before electrophysiological experiments were performed.
Glass chips carrying the transfected cells were transferred to a chamber located on the stage of an inverted microscope (IX51; Olympus). Borosilicate capillary glasses were used to make patch pipettes using a two-stage micropipette puller (PP-81, Narishige, Japan). The pipettes were polished with a homemade microforge to a resistance of 2-4 MΩ in the bath solution. Once the seal resistance reached >40 GΩ, membrane patches were excised into an inside-out mode. Subsequently, the pipette was moved to the outlet of a three-barrel perfusion system and perfused with 25 IU PKA and 2 mM ATP until the CFTR current reached a steady state. A patch-clamp amplifier (EPC10, HEKA, Germany) was used to record electrophysiological data at room temperature. The data were filtered online at 100 Hz with an eight-pole Bessel filter (LPF-8; Warner Instruments) and digitized to a computer at a sampling rate of 500 Hz. […] Membrane potential was held at −30 or −50 mV for all recordings.
Disease-causing mutations (G551D and delF508) were made with PCR-based site-directed mutagenesis using the Pfu Ultra II (Agilent Technologies). […] The cDNA constructs of CFTR (G551D and delF508) were co-transfected with peGFP-C3 (Takara Bio Inc.) encoding the green fluorescent protein into CHO cells using PolyFect transfection reagent (QIAGEN). The transfected cells were transferred into 35 mm tissue culture dishes containing one layer of sterilized glass chips for cells to grow on. The transfected cells were incubated at 27° C. for 2-7 days before electrophysiological experiments were performed.
All patch-clamp experiments were carried out in the excised inside-out configuration. Micropipettes made of borosilicate capillary glass were pulled with a two-stage vertical puller (Narishige) and then fire-polished with a homemade microforge to reach a pipet resistance of 2-4 MΩ when the pipettes were filled with a standard inside-out pipet solution that contains: 140 mM N-Methyl-D-glucamine-Cl (NMDG-Cl), 2 mM MgCl2, 5 mM CaCl2) and 10 mM HEPES, adjusted to pH 7.4 with NMDG.

Sequence of delF508-CFTR (P13569 with tags, fused parts or gaps DEL508-508): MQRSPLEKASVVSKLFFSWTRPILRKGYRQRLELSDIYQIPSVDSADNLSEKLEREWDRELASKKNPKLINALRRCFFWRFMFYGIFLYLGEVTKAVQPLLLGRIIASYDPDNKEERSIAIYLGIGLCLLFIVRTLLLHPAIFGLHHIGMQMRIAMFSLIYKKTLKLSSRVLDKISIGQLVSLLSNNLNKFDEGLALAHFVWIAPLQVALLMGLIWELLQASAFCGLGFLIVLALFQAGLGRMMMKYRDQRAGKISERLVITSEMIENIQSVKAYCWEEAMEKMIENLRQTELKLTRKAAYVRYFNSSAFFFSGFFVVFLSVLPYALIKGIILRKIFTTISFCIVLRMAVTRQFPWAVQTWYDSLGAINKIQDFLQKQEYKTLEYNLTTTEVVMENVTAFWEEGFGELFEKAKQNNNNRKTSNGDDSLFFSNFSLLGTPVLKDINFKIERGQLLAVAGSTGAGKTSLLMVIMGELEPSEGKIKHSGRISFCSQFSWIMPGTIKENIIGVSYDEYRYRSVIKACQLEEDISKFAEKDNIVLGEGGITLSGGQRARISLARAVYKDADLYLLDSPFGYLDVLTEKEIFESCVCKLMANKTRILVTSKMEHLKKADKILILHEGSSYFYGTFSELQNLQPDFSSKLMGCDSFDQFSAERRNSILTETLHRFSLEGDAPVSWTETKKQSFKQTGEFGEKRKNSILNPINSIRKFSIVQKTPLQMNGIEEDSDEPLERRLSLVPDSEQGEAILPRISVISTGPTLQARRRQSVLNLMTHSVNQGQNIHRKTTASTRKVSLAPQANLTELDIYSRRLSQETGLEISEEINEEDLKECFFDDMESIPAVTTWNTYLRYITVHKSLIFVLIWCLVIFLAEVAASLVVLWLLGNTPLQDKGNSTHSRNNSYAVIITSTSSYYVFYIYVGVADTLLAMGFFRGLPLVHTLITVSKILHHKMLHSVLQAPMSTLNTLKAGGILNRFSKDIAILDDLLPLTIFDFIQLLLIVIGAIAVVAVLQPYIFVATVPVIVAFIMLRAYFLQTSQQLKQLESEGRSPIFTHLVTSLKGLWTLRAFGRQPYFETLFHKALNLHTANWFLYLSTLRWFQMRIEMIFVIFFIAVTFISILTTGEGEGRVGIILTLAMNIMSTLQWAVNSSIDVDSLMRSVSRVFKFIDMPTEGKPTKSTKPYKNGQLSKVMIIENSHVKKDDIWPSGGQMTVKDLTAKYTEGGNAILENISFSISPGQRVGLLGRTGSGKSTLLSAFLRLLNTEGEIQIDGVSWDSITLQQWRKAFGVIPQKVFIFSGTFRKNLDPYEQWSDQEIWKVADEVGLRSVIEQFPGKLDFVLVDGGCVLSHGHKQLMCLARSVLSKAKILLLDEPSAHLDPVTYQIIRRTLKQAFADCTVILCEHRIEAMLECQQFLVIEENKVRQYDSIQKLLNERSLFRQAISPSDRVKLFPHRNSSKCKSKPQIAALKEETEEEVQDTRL

SMILES: CC(C)(C)c1cc(C(C)(C)C)c(NC(=O)c2c[nH]c3ccccc3c2=O)cc1O [VX-770, Ivacaftor, reference compound]
- fold increase of mean delF508-CFTR current (200 nM VX-770 alone): ~10 folds
- rundown of delF508-CFTR current in the presence of the compound (real-time current trace, FIG. 10): immediately starts to decline
